Reference: PubChem BioAssay (NCI)
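Step 1: Grow cells in 96-well plates. Step 2: Expose to compound for 48 hours at 5 concentrations. Step 3: Interpolate endpoints linearly; if unreached, use highest concentration. At the TGI there is no net growth.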

Assays:
Assay in all cases: NCI anticancer screen, dose series, 48 h
[1] = tested on: ACHN renal
[2] = tested on: EKVX NSCLC
[3] = tested on: HT29 colon
[4] = tested on: NCI-H23 lung
[5] = tested on: NCI-H522 lung
[6] = tested on: NCI/ADR-RES ovarian
[7] = tested on: RPMI-8226 leukemia
[8] = tested on: SK-MEL-28 melanoma
[9] = tested on: SN12C renal
[10] = tested on: SNB-19 CNS

SMILES	TGI [1] [µM]	TGI [2] [µM]	TGI [3] [µM]	TGI [4] [µM]	TGI [5] [µM]	TGI [6] [µM]	TGI [7] [µM]	TGI [8] [µM]	TGI [9] [µM]	TGI [10] [µM]
Cc1cc(-c2nc3c(O)cccc3s2)ccc1N	43.4	52.9	53.3	89.4	39.9	50.4	> 100	> 100	90.7	41
O=C(NC(Cc1c[nH]c2ccccc12)C(=O)O)/C(=C/c1ccccc1O)NC(=O)c1ccccc1 (stereo not given)	33.3	> 100	> 100	> 100	> 100	39.7	> 100	> 100	63.9	> 100
O=C1/C(=C/c2ccccc2S)N=C(c2ccccc2)N1c1nc2ccc(Sc3ccccc3)cc2[nH]1	> 100	> 100	43.1	> 100	54.2	50.4	65.7	> 100	99.1	> 100
O=c1cc(/C=C/c2ccc(O)c(O)c2)oc(/C=C/c2ccc(O)c(O)c2)c1	16.1	18.1	25.3	25.1	4	> 65.3	> 27.4	31.6	16	18.2
COc1ccc(N2C(=O)c3c4c(c5c([nH]c6ncccc65)c3C2=O)CCC(C(C)(C)C)C4)cc1 (stereo not given)	> 100	> 100	> 100	> 100	> 100	> 100	> 100	> 100	> 100	> 100
C=C1[C@@H](O)C[C@@]23CC[C@@H]4[C@@]5(C)CC[C@@H](OC(C)=O)C(C)(C)[C@@H]5C[C@@H](OC5OC(COC(C)=O)C(O)C(O)C5O)[C@@]4(C)C2=CC[C@H]3[C@H]1C (stereo not given in full)	21.9	25.9	4.75	26.5	21.1	35.3	8.01	19.8	21	17.5
O=C1CCSSCCC(=O)NCCN1	> 100	> 100	> 100	> 100	> 100	> 100	> 100	> 100	> 100	> 100
Cc1cc(C)c2c(=O)n(CN3CC4Nc5ccccc5C4C3)sc2n1 (stereo not given)	33.8	88.5	46.1	47.6	14.2	> 100	> 100	82.3	> 100	> 100
CCCCn1c2c(n(CCCC)c1=S)-c1c(n(CCCC)c(=S)n1CCCC)S[Se][Se]S2	14.2	24.3	32.5	41.5	0.479	53	> 35.3	> 61.4	99.1	> 76.4
C1CCSCCCCSCCCCSCCCCSC1	> 100	> 100	> 100	> 100	> 100	> 100	> 100	> 100	> 100	> 100
O=C1c2ccccc2CN1c1ccc(O)cc1	> 100	> 100	> 100	> 100	> 100	> 100	> 100	> 100	> 100	> 100
NC(CSCc1ccccc1)C(=O)O (stereo not given)	> 100	> 100	> 100	> 100	> 100	> 100	> 100	> 100	> 100	> 100
CCOC1CC(=O)c2c(Br)sc(Br)c21 (stereo not given)	36.7	42.7	44	37.4	52.7	> 100	49.6	39.5	58.4	51.9
C[n+]1c(-c2ccccc2)cc2/c(=C\c3ccc([N+](=O)[O-])cc3)c3ccccc3n21	> 38.5	44.2	> 32.6	13.6	2.8	> 100	> 100	24	> 33.6	> 36.1
CC(=O)NS(=O)(=O)c1ccc(NC(=O)c2c3ccccc3nc3ccccc23)cc1	> 100	> 100	> 100	> 100	> 100	> 100	> 100	> 100	> 100	> 100
CC(CC(C#N)(c1ccccc1)c1ccccc1)N1CCCCC1 (stereo not given)	> 100	56.3	51	> 100	36.7	> 100	40.7	67	74.5	> 100
Cc1ccccc1OC(C)C(=O)NN1C(=O)CC(=O)N(c2ccc(Cl)cc2)C1=S (stereo not given)	> 100	> 100	> 100	> 100	> 100	> 100	> 100	> 100	> 100	> 100
